In patent publication US20240262844A1, “PYRIDINIUM SALTS AND METHODS OF USE” (UNIVERSITY OF WYOMING, priority 2023, published 2024):
Values joined by “and” are separate entries in the source; they are usually repeats but may differ in a detail not shown here. Identical values can stand only once. “Also recorded” adds a separate entry of the source. Counter-ions that a name gives are not always drawn.

Key:
HEK293T lysates = assay: Chemoproteomic profiling of HEK293T lysates (protein-level enrichment); format: biochemical, Human; settings: for proteome labeling profile, streptavidin-HRP Western blot of elution profiles: 0-100 μM probe, with and without irradiation, before digestion; for number of proteins identified (from ≥2 unique peptides) with ≥2-fold enrichment versus DMSO: about 100 μM probe, 60 min incubation, 20 min irradiation (302 nm 1a, 320 nm 1b, 440 nm 2b)
Procedure: In lysate tryptophan probe treatment for protein-level characterization: HEK293T cell pellets were suspended in native lysis buffer (50 mM HEPES pH 7.5, 150 mM sodium chloride (NaCl), 1.5 mM MgCl2, 1 mM DTT, 0.8% NP-40, 5% glycerol, and 1x protease inhibitors (Thermo)) at 2x the pellet volume. The samples were sonicated on ice for 30 seconds at 20% amplitude with a 2 second pulse ON and 3 second pulse OFF. Cell debris was removed by centrifugation at 20,000×g for 20 minutes at 4° C. Protein concentration was determined by bicinchoninic acid (BCA) (Pierce) and diluted down to 5 mg/mL with ChemProt buffer (50 mM HEPES pH 7.5, 150 mM NaCl, 1.5 mM MgCl2, 1 mM DTT, 0.4% NP-40, and 1x protease inhibitors (Thermo). 5 mg cell lysates were treated with 100x stocks of the tryptophan probes (pyridinium salts 1a, 1b, and 2b) to generate final concentrations (0, 1, 10, and 100 μM) in 1% DMSO. Lysates were incubated for 1 hour at 4° C. followed by photo-activation at respective wavelengths for 20 minutes at 4° C. Excess probe was removed using Sephadex G-25 PD-10 desalting columns (GE Healthcare) pre-equilibrated with 50 mM HEPES pH 7.5, 150 mM NaCl, 1.5 mM MgCl2, and 0.4% NP-40. The samples were then treated with 100 μL Neutravidin resin as a 50% slurry (Peirce). The samples were incubated overnight on a rotating apparatus at R.T. The following day, the beads were transferred to a MobiCol column (Boca Scientific), washed 3× with phosphate buffered saline (PBS) containing 0.2% SDS, washed 3x with PBS, and the enriched proteins were eluted with 2×NuPAGE lithium dodecyl sulfate (LDS) containing 10 mM DTT (Pierce) and heated for 30 minutes at 55° C. The eluent was collected and subsequently treated with 20 mM iodoacetamide (Pierce) for 30 minutes at R.T. protected from light. Samples were passed through detergent removal columns (Pierce) that were pre-equilibrated with 50 mM HEPES pH 8.0. The samples were treated with 2.5 μg Trypsin/LysC (Promega) at 37° C. for 16 hours. The following day, the sample was collected and prepped for isobaric labeling with TMT reagents (Thermo) as specified by the manufacturer.
Quantitative proteomics by two-dimensional nano liquid chromatography-tandem mass spectrometry (nLC-MS/MS): For protein-level characterization, the TMT-labeled sample were reconstituted in 0.1% formic acid (FA)/2% acetonitrile for offline high-pH reversed phase separation (RP10) using a Dionex UltiMate 3000 high-performance liquid chromatography (HPLC) system with fraction collection using Chromeleon v.6.8 (Thermo) software. Separation was achieved on a Waters Xbridge C18 3.5 μm 2.1×150 mm HPLC column (Waters) using a flow rate of 250 μL min-1 and the following ternary gradient and conditions: mobile phase A=water (HPLC grade), mobile phase B=acetonitrile (HPLC grade), and mobile phase C=200 mM ammonium acetate, pH 10. Mobile phase C is held at 10% throughout gradient. Starting conditions are 89% mobile phase A and 1% mobile phase B, ramping mobile phase B to 80% over 65 min. Fractions were collected in 96-well plates at 100 see per well. Fractions were reduced down to 12 fractions, dried, and reconstituted in 0.1% FA/2% acetonitrile for nLC-MS/MS. All data were acquired using a Orbitrap Fusion Lumos coupled to an Easy-nLC 1200 nanoflow liquid chromatograph operating at 300 nL min^−1. Peptides were cleaned up using a 1 cm online custom trap then eluted on a custom 20 cm laser pulled 75 μm column with C18 resin. Peptides were quantified using the synchronous precursor selection (SPS-MS3) or HCD method for TMT quantitation with 120k MS1 resolving power, 50 ms max injection time and 100% AGC. MS2 spectra were selected using the top ten most abundant features with a charge state between 2-6 using CID (collision induced dissociation) in the ion trap. The AGC was set to 100% with an isolation width of 0.7. MS3 was performed on the top 10 most abundant MS2 features between 400-1600 amu with a collision energy of 55%, AGC of 250%, and 50k resolution. […]

[1] = Water solubility of salt forms; format: physicochemical; settings: trifluoroacetate salt compared to the tetrafluoroborate salt
Procedure: Pyridinium salt 2c was synthesized by adapting general procedure A as follows: To a flame dried round-bottom flask equipped with a stir bar was added 4-(6-methoxynaphthalen-2-yl)-2,6-dimethylpyrylium tetrafluoroborate (S2) (80 mg, 0.23 mmol), 6-((4R,5S)-5-methyl-2-oxoimidazolidin-4-yl)hexyl 1-methylhydrazine-1-carboxylate S6 (110 mg, 0.404 mmol), and ethanol (1.2 mL) and stirred for 24 hours at 60° C. The reaction mixture was then concentrated using a rotary evaporator. The resulting residue was dissolved in dichloromethane and washed with 10% fluoroboric acid (HBF4, aqueous) (2×10 mL), saturated NaBF4 (aqueous) (2×10 mL), dried over […], filtered, and concentrated using a rotary evaporator. The resulting green solid was then sonicated in hexanes followed by decanting of the supernatant. This procedure was repeated 5 times and the resulting solid was dried under vacuum to obtain the tetrafluoroborate salt of 2c as a green solid (119 mg, 76%). The tetrafluoroborate salt of 2c was further purified by HPLC using general method B to yield the trifluoroacetate (X=TFA, CF3CO2^−) salt of 2c.

lysozyme (14.3 kDa) = molecular target: T1, lysozyme (14.3 kDa) (Gallus gallus, UniProt P00698); assay: Photochemical labeling of lysozyme (LC/MS); format: biochemical, chicken; settings: 500 μM pyridinium salt 2c, 300 μM glutathione
T1 construct: Lysozyme (from chicken egg white, >40,000 units/mg of protein); purchased Sigma Aldrich; host or cells: chicken egg white
Procedure: General Procedure B: Photochemical Irradiation of Peptides and Proteins: To a 2 mL Pyrex LC/MS vial (Thermo model #03-391-39) were sequentially added solutions containing the desired biomolecule, glutathione (GSH), pyridinium salt, and ammonium acetate (NH4OAc). The resulting solution was diluted to a final volume of 500 μL and then sparged using nitrogen for a minimum of 30 minutes prior to irradiation. The actively sparging solution was then placed in an EvoluChem™ PhotoRedOx Box photoreactor that was equipped with a Kessil, PR160 427 nm LED Lamp and was then irradiated (100% lamp intensity) for the designated time at room temperature while maintaining active sparging. The resultant reaction mixture was then analyzed directly by LC/MS. Analysis of labeling outcomes using LC/MS was performed either by extracted ion chromatogram intensities (method A) or by integrating the area under the peaks associated with peptide content (method B). These values were totaled, and estimated percentages were assigned according to relative intensities of peaks or ion counts.
Labeling of Lysozyme with Pyridinium Salt 2a (Lysozyme-2a Conjugate). Labeling of lysozyme (14.3 kDa) with the pyridinium salt 2a was performed by following general procedure B using the following solutions: lysozyme (27 μL, 182 μM, 10 μM final concentration), pyridinium salt 2a (200 μL, 500 μM, 200 μM final concentration), NH4+OAc (100 μL, 100 mM, pH=6.9, 20 mM final concentration), glutathione (15 μL, 10 mM, 300 μM final concentration), and water (158 μL) with a 100% intensity irradiation time of 60 minutes. The reaction mixture was analyzed directly by LC/MS using method A and was estimated to have proceeded in >95% conversion and a 10.9:1 mono:di labeled ratio and 10% glutathionylation of all unlabeled and labeled protein content was observed.
Labeling of Lysozyme with Pyridinium Salt 2b (Lysozyme-2b Conjugate). Labeling of lysozyme (14.3 kDa) with the pyridinium salt 2b was performed by following general procedure B using the following solutions: lysozyme (19 μL, 262 μM, 10 μM final concentration), 2b (181 μL, 554 μM, 200 μM final concentration), NH4OAc (50 μL, 200 mM, pH=6.9, 20 mM final concentration), glutathione (50 μL, 3 mM, 300 μM final concentration), and water (200 μL) with a 100% intensity irradiation time of 10 minutes. The reaction mixture was analyzed directly by LC/MS using method A and was estimated to have proceeded with 83% conversion. Partial oxidation at biotin obfuscated estimation of both oxidation and glutathionylation. Lysozyme-2b conjugate (retention time (Tr)=2.80-5.17 min).
Labeling of Lysozyme with Pyridinium Salt 2c (Lysozyme-2c Conjugate). Labeling of lysozyme (14.3 kDa) with the pyridinium salt 2c was performed by following general procedure B using the following solutions: lysozyme (19 μL, 262 μM, 10 μM final concentration), pyridinium salt 2c(367 μL, 680 μM, 500 μM final concentration), NH4OAc (50 μL, 200 mM, pH=6.9, 20 mM final concentration), glutathione (50 μL, 3 mM, 300 μM final concentration), and water (14 μL) with a 100% intensity irradiation time of 10 minutes. The reaction mixture was analyzed directly by LC/MS using method A and was estimated to have proceeded with 85% conversion and a 3.7:1 mono:di labeled ratio and 10% glutathionylation of all protein content was observed. Lysozyme-2c conjugate (retention time (Tr)=3.11-5.07 min).
Labeling of Lysozyme with Pyridinium Salt 2d (Lysozyme-2d Conjugate). Labeling of lysozyme (14.3 kDa) with the pyridinium salt 2d was performed by following general procedure B using the following solutions: Lysozyme (16.8 μL, 0.297 mM solution in H2O, final concentration […]), pyridinium salt 2d (91.8 μL, 1.09 mM solution in CH3CN/H2O (2:3), final concentration 200 μM), NH4OAc (50 μL, 200 mM in H2O, final concentration 20 mM, pH 6.9), glutathione (15 μL, 10 mMsolution in H2O, final concentration 300 μM), and water (326.4 μL) with a 100% intensity irradiation time of 20 minutes. […]

T1 sequence (P00698 19-147): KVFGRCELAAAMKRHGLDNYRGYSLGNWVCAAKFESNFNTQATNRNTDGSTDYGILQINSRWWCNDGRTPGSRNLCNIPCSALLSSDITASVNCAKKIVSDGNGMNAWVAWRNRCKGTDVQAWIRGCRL

| SMILES | proteome labeling profile, streptavidin-HRP Western blot of elution profiles (HEK293T lysates) | number of proteins identified (from ≥2 unique peptides) with ≥2-fold enrichment versus DMSO (HEK293T lysates) | water solubility [1] | conversion (lysozyme (14.3 kDa); 10 μM lysozyme, 20 mM NH4OAc pH 6.9, 427 nm, 10 minutes, trifluoroacetate) | glutathionylation of all protein content (lysozyme (14.3 kDa); 10 minutes irradiation) |
| --- | --- | --- | --- | --- | --- |
| Cc1cc(-c2ccccc2)cc(C)[n+]1N(C)C(=O)OCCCCC[C@@H]1SC[C@@H]2NC(=O)N[C@@H]21 [Pyridinium salt 1b, 2,6-dimethyl-1-(methyl(((5-((3aS,4S,6aR)-2-oxohexahydro-1H-thieno[3,4-d]imidazole-4-yl)pentyl)oxy)carbonyl)amino)-4-phenylpyridin-1-ium tetrafluoroborate] | concentration and optically dependent proteome labeling profiles; also recorded: dose-response profiles | 365 proteins | – | – | – |
| COc1ccc2cc(-c3cc(C)[n+](N(C)C(=O)OCCCCCC[C@H]4NC(=O)N[C@H]4C)c(C)c3)ccc2c1 [Pyridinium salt 2c, 4-(6-methoxynaphthalen-2-yl)-2,6-dimethyl-1-(methyl(((6-((4R,5S)-5-methyl-2-oxoimidazolidin-4-yl)hexyl)oxy)carbonyl)amino)pyridin-1-ium trifluoroacetate] | – | – | superior water solubility | 85% and 86% | 10% |
| Cc1cc(C)[n+](N(C)C(=O)OCCCCC[C@@H]2SC[C@@H]3NC(=O)N[C@@H]32)c(C)c1 [Pyridinium salt 1a, 2,4,6-trimethyl-1-(methyl(((5-((3aS,4S,6aR)-2-oxohexahydro-1H-thieno[3,4-d]imidazol-4-yl)pentyl)oxy)carbonyl)amino)pyridin-1-ium tetrafluoroborate] | concentration and optically dependent proteome labeling profiles; also recorded: loss of signal | 185 proteins | – | – | – |
